Assay results reported in patent publication US6797710B2, “Heterocyclic derivatives and their use as antithrombotic agents” (Akzo Nobel N.V., priority 1997, dated 2004).
Where a name gives a salt, the structure may show the parent alone. Read-outs that look alike come from different tables or passages of the source. One block for each molecule: values may come before it.

Experiments:
Bovine Factor Xa = Bovine Factor Xa (Bos taurus, UniProt P00743); assay: Anti-factor Xa assay (hydrolysis of chromogenic substrate S-2222); format: biochemical; conditions: substrate S-2222, TNP buffer, 37° C.
Text: Activated Factor X (Xa) is a factor in the coagulation cascade. […] This assay for anti-Xa activity in a buffer system was used to assess the IC50-value of the test compound.
In general the followed procedure and test conditions were analogous to those of the anti-thrombin assay as described above. Differences are indicated below.

Caco-2 permeability = conditions: human, Caco-2
Protocol: (§1) In this in vitro model the transepithelial transport properties of a compound are determined in monolayers of a human intestinal cell-line (Caco-2) in terms of a permeability coefficient (apparent permeability).
(§2) Caco-2 cells were obtained from the American Type Culture Collection and were used in passage nrs 25 to 35. Cells were maintained at 37° C. in 75 cm^2 culture flasks (Nunc) in Dulbecco's Modified Eagle's Medium (DNEM) supplemented with 1% of non-essential amino acid solution (100×), 10% of heat-inactivated fetal bovine serum, penicillin (100 U/ml) and streptomycin (100 μg/ml) in an atmosphere of 95% of air and 5% of CO2. The pH of the medium was 7.4. For experiments cells were grown on Transwell-COL™ collagen treated cell culture filter inserts (Costar, Cambridge, Mass., USA) with a surface area of 0.33 cm^2 The seeding density was 6.3×10^5 cells/cm^2. Culture medium was added on each side of the filter. The growth of the cells and degree of confluency was checked every 2-3 days microscopically. Confluent monolayers were used on day 23-24 after seeding, at which time the transepithelial electrical resistance of the monolayers was at a stable value of approximately 260 Ω·cm^2. Permeability experiments were performed with compound concentrations of 0.1 mM or 1 mM in the apical compartment in Hanks' Balanced Salt Solution with or without 0.5% (w/v) of bovine serum albumin. At 1, 2 and 3 hours after addition of compound to the cells the filters were placed into fresh acceptor compartments. In this way three one-hour samples were obtained. Compound concentration was determined in samples from acceptor compartments and donor compartment by HPLC or by measuring anti-thrombin activity. Permeability experiments of each compound were performed with 4 different filters. Results shown in the Table are means of the permeability between 2 and 3 hours after the start of the experiment of at least 2 filters.

Human thrombin = Human thrombin (Homo sapiens, UniProt P00734); assay: Anti-thrombin assay (hydrolysis of chromogenic substrate S-2238); format: biochemical; conditions: substrate S-2238, TNP buffer pH 7.4, 37° C., read-out: Antithrombin activity: IC50
Text: Thrombin (Factor IIa) is a factor in the coagulation cascade.
This assay for anti-thrombin activity in a buffer system was used to assess the IC50-value of a test compound.
Preparation of test and reference compound solutions
Each concentration is stepwise diluted with the vehicle to give concentrations of 10^−3, 10^−4 and 10^−5 mol·l^−1. The dilutions, including the stock solution, are used in the assay (final concentrations in the reaction mixture: 3·10^−3; 10^−3; 3·10^−4; 10^−4; 3·10^−5; 10^−5; 3·10^−6 and 10^−6 mol·l^−1, respectively).
At room temperature 0.075 ml and 0.025 ml test compound or reference compound solutions or vehicle are alternately pipetted into the wells of a microtiter plate and these solutions are diluted with 0.115 ml and 0.0165 ml TNP buffer, respectively. […] The plate is incubated (with shaking for 30 s) at 37° C.
All data are collected in an IBM personal computer using LOTUS-MEASURE. For each compound concentration (expressed in mol·l^−1 reaction mixture) and for the blank the absorbance is plotted versus the reaction time in min.
Evaluation of responses: For each final concentration the maximum absorbance was calculated from the assay plot.

Caco-2 cells [1] = assay: Caco-2 permeability; conditions: 0.1 mM or 1 mM apical; mean of permeability between 2 and 3 hours, at least 2 filters
Protocol: as §1, §2

in vitro = conditions: human, Caco-2
Protocol: as §1, §2

Caco-2 cells [2] = test system: Caco-2 cells
Protocol: as §1, §2

Chain of Bovine Factor Xa (P00743 41-180 limits assumed): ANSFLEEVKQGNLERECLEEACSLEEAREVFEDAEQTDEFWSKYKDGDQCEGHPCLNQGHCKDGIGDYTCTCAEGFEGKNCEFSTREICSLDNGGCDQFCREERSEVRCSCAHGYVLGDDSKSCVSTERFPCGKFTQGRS
Chain of Bovine Factor Xa (P00743 234-492 limits assumed): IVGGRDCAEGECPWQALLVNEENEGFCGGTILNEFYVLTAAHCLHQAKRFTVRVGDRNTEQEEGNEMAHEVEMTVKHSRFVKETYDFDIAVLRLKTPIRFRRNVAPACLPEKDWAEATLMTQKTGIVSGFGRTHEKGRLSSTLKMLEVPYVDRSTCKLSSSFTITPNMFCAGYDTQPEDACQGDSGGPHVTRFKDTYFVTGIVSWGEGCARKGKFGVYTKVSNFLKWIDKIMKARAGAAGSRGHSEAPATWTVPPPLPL

IC50 (Human thrombin): 35 µM
Molecule: CC1CCN(C(=O)C(Cc2cc3c(N)nccc3s2)NS(=O)(=O)CC23CCC(CC2=O)C3(C)C)CC1 [Example 30, 1-[3-(4-aminothieno[3,2c]pyridin-2-yl)-2-[[[1-(1R,4S)-(7,7-dimethyl-2-oxobicyclo[2,2,1]hept-1-yl)methyl]sulfonyl]amino]-1-oxopropyl]-4-methylpiperidine hydrochloride]

IC50 (Bovine Factor Xa): 14 µM
Molecule: COCCN(C)C(=O)C(Cc1cc2c(N)nccc2s1)NS(=O)(=O)c1ccc2ccc(OC)cc2c1 (stereo not shown) [Example 26, 3-(4-aminothieno[3,2c]pyridin-2-yl)-N-(2-methoxyethyl)-2-[[(7-methoxy-2-naphthalenyl)-sulfonyl]amino]-N-methyl-propanamide hydrochloride]

Caco-2 Papp (apparent permeability) (Caco-2 cells [1]): 2.5 ×10⁻⁶ cm/s
Molecule: Cl.Nc1nccc2sc(CC(NC(=O)CNS(=O)(=O)c3ccc4ccccc4c3)C(=O)N3CCCCC3)cc12 (stereo not shown) [Example 4, N-[1-[(4-Aminothieno[3,2c]pyridin-2-yl)methyl]-2-oxo-2-(1-piperidinyl)ethyl]-2-[(2-naphthalenylsulfonyl)amino]acetamide hydrochloride]

IC50 (Human thrombin): 1.1 µM
Molecule: Cc1c(C)c(S(=O)(=O)NNC(=O)NC(Cc2ccc3c(N)nccc3c2)C(=O)N2CCCCC2)c(C)c2c1OC(C)(C)CC2 (stereo not shown) [Example 10, 3,4-dihydro-2,2,5,7,8-pentamethyl-2H-1-benzopyran-6-ylsulfonic acid 2-[[[1-[(1-amino-6-isoquinolinyl)methyl]-2-oxo-2-(1-pineridinyl)ethyl]amino]carbonyl]hydrazide hydrochloride]

IC50 (Human thrombin): 6.8 µM
Molecule: Nc1nccc2cc(CC(NC(=O)[C@H](CO)NS(=O)(=O)c3ccc4ccccc4c3)C(=O)N3CCCCC3)ccc12 (stereo partly drawn) [Example 7, (2S)-N-[1-[(1-amino-6-isoquinolinyl)methyl]-2-oxo-2-(1-piperidinyl)ethyl]-3-hydroxy-2-[(2-naphthalenylsulfonyl)amino]propanamide hydrochloride]

IC50 (Human thrombin): 0.53 µM
Molecule: COc1ccc2ccc(S(=O)(=O)NC(Cc3cc4c(N)nccc4s3)C(=O)N3CCC(C)CC3)cc2c1 (stereo not shown) [Example 18, 1-[1-(4-aminothieno[3,2c]pyridin-2-yl)-2-[[(7-methoxy-2-naphthalenyl)sulfonyl]amino]-1-oxopropyl]-4-methylpiperidine hydrochloride]

IC50 (Human thrombin): 1.44 µM
Molecule: CC1CCN(C(=O)C(Cc2cc3c(N)nccc3s2)NS(=O)(=O)c2ccc3oc4ccccc4c3c2)CC1 (stereo not shown) [Example 32, 1-[3-(4-aminothieno[3,2c]pyridin-2-yl)-2-[[(2-dibenzofuranyl)sulfonyl]amino]-1-oxopropyl]-4-methylpiperidine hydrochloride]

The next lines start with the molecule.

Molecule: COC(=O)C(Cc1ccc2c(N)nccc2c1)NC(=O)CNS(=O)(=O)c1ccc2ccccc2c1 (stereo not shown) [Example 1, 3-(1-amino-6-isoquinolinyl)-2-[[2-[(2-naphthalenylsulfonyl)amino]acetyl]amino]propionic acid methyl ester hydrochloride]
IC50 (Bovine Factor Xa): 48 µM

Molecule: Cl.Nc1nccc2cc(CC(NC(=O)CNS(=O)(=O)c3ccc4ccccc4c3)C(=O)N3CCCCC3)ccc12 (stereo not shown) [Example 2, N-[1-[(1-amino-6-isoquinolinyl)methyl]-2-oxo-2-(1-piperidinyl)ethyl]-2-[(2-naphthalenyl-sulfonyl)amino]acetamide hydrochloride]
Papp A→B (Caco-2 permeability): 1.9 ×10⁻⁶ cm/s

Molecule: COC(=O)C(Cc1cc2c(N)nccc2s1)NC(=O)CNS(=O)(=O)c1ccc2ccccc2c1 (stereo not shown) [Example 3, 3-(4-aminothieno[3,2c]pyridin-2-yl)-2-[[2-[(2-naphthalenylsulfonyl)amino]acetyl]amino]-propionic acid methyl ester hydrochloride]
IC50 (Bovine Factor Xa): 29 µM

Molecule: Cc1c(C)c(S(=O)(=O)NCC(=O)NC(Cc2ccc3c(N)nccc3c2)C(=O)N2CCCCC2)c(C)c2c1OC(C)(C)CC2.Cl (stereo not shown) [Example 5, N-[1-[(1-Amino-6-isoquinolinyl)methyl]-2-oxo-2-(1-piperidinyl)ethyl]-2-[[(3,4-dihydro-2,2,5,7,8-pentamethyl-2H-1-benzopyran-6-yl)sulfonyl]amino]acetamide hydrochloride]
IC50 (Human thrombin): 28 µM
Papp A→B (in vitro): 3.7 ×10⁻⁶ cm/s

Molecule: 1-[3-[3-(aminoiminomethyl)phenyl]-2-[(2-naphthalenyl-sulfonyl)amino]-1-oxopropyl]-4-(methylsulfonyl)piperazine [Pefa 1286]
Caco-2 Papp (apparent permeability) (Caco-2 cells [2]): 0.11 ×10⁻⁶ cm/s
